Each molecule was assayed against Polθ theta (1-899) (hPolQ) (Homo sapiens (Human), UniProt O75417) (assay: Biological Assay 1: Polθ ATPase activity, NADH oxidation-coupled enzymatic assay (10 nM enzyme, 30 min)). Settings: Polθ (1-899) 10 nM, 100 μM ATP, 300 nM dT50 ssDNA; Examples 1 to 268; read-out: ATPase NADH coupling:Standard Screening:hPolQ IC50.
Assay type: biochemical
Procedure, shortened: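 ATP turnover was coupled to NADH oxidation and followed at 340 nm every minute for 30 min. Enzyme (residues 1-899, 10 nM) sat with compound for 15 min at room temperature before an equal-volume addition of 100 μM ATP plus 300 nM dT50 ssDNA. Progress-curve slopes from 10-point dilutions were fitted by a four-parameter model.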

Polθ theta (1-899) (hPolQ), sequence (O75417 1-899): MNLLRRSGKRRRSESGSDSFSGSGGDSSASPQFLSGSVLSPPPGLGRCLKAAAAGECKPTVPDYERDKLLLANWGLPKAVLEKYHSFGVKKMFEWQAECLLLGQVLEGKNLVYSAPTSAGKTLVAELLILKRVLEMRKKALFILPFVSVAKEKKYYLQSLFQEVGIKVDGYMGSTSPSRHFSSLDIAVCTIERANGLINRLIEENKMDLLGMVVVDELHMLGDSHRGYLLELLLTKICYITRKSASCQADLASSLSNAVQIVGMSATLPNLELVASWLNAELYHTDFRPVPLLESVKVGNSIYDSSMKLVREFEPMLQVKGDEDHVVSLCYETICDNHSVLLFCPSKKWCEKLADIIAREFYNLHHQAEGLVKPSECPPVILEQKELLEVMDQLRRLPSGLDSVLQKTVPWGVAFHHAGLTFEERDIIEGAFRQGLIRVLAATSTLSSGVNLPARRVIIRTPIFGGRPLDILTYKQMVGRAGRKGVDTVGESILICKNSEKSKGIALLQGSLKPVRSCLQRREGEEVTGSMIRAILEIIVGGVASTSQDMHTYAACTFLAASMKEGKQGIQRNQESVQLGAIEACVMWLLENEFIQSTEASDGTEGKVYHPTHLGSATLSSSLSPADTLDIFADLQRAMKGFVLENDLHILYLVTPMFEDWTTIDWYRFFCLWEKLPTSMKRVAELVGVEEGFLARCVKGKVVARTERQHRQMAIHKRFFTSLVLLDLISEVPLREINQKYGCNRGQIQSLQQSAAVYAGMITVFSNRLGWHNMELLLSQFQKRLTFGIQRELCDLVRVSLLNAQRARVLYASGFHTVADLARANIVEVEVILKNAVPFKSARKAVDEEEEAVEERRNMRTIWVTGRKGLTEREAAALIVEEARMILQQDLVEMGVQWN

| IC50 [µM] | SMILES |
| --- | --- |
| 0.2 to 0.5 | Cc1cc(-c2cc(C)ncc2C(=O)Nc2nnc(OCc3ccc(C(C)(C)O)cn3)s2)ccn1 [Example 89, N-(5-((5-(2-hydroxypropan-2-yl)pyridin-2-yl)methoxy)-1,3,4-thiadiazol-2-yl)-2′,6-dimethyl-(4,4′-bipyridine)-3-carboxamide] |
| ≤ 0.2 | COc1cnc(Cl)cc1-c1cc(C)ncc1C(=O)Nc1nnc(OCC23CCC(O)(CC2)C3)s1 [Example 218, 2′-chloro-N-(5-((4-hydroxybicyclo(2.2.1)heptan-1-yl)methoxy)-1,3,4-thiadiazol-2-yl)-5′-methoxy-6-methyl-(4,4′-bipyridine)-3-carboxamide] |
| ≤ 0.2 | Cc1cc(-c2c(F)cccc2OC(F)F)c(C(=O)Nc2nnc(OCc3ccc([C@H](C)O)cn3)s2)cn1 [Example 56, 4-(2-(difluoromethoxy)-6-fluorophenyl)-N-(5-((5-((S)-1-hydroxyethyl)pyridin-2-yl)methoxy)-1,3,4-thiadiazol-2-yl)-6-methylnicotinamide] |
| ≤ 0.2 | COc1cnc(Cl)cc1-c1cc(C)ncc1C(=O)Nc1nnc(OCC2CCNCC2)s1 [Example 174, 2′-chloro-5′-methoxy-6-methyl-N-(5-(piperidin-4-ylmethoxy)-1,3,4-thiadiazol-2-yl)-(4,4′-bipyridine)-3-carboxamide] |
| ≤ 0.2 | COc1ccc(Cl)cc1-c1cc(C)ncc1C(=O)Nc1nnc(OCc2cnc(CO)cn2)s1 [Example 133, 4-(5-chloro-2-methoxyphenyl)-N-(5-((5-(hydroxymethyl)pyrazin-2-yl)methoxy)-1,3,4-thiadiazol-2-yl)-6-methylpyridine-3-carboxamide] |
| ≤ 0.2 | COc1cccc(F)c1-c1cc2cnc(C)n2cc1C(=O)Nc1nnc(OC[C@H]2CC[C@H](O)CC2)s1 [Example 195, 7-(2-fluoro-6-methoxyphenyl)-N-(5-(((1r,4r)-4-hydroxycyclohexyl)methoxy)-1,3,4-thiadiazol-2-yl)-3-methylimidazo(1,5-a)pyridine-6-carboxamide] |
| ≤ 0.2 | COc1cnc(Cl)cc1-c1cc(C)ncc1C(=O)Nc1nnc(OCc2ccc3c(n2)OCCO3)s1 [Example 51, 2′-chloro-N-(5-((2,3-dihydro-[1,4]dioxino[2,3-b]pyridin-6-yl)methoxy)-1,3,4-thiadiazol-2-yl)-5′-methoxy-6-methyl-[4,4′-bipyridine]-3-carboxamide] |
| ≤ 0.2 | COc1cnc(Cl)cc1-c1cc(C)ncc1C(=O)Nc1nnc(OCC2(C)CCOC2)s1 (stereo not drawn) [Example 131, 2′-chloro-5′-methoxy-6-methyl-N-(5-((3-methyloxolan-3-yl)methoxy)-1,3,4-thiadiazol-2-yl)-(4,4′-bipyridine)-3-carboxamide] |
| ≤ 0.2 | COc1cnc(Cl)cc1-c1cc(C)ncc1C(=O)Nc1nnc(OC[C@@H]2COCCO2)s1 [Example 186, (S)—N-(5-((1,4-dioxan-2-yl)methoxy)-1,3,4-thiadiazol-2-yl)-2′-chloro-5′-methoxy-6-methyl-(4,4′-bipyridine)-3-carboxamide] |
| ≤ 0.2 | COc1cccc(F)c1-c1cc(C)ncc1C(=O)Nc1nnc(OCc2ccc(CCO)cn2)s1 [Example 55, 4-(2-fluoro-6-methoxyphenyl)-N-(5-((5-(2-hydroxyethyl)pyridin-2-yl)methoxy)-1,3,4-thiadiazol-2-yl)-6-methylnicotinamide] |
| ≤ 0.2 | COc1cnc(Cl)cc1-c1cc(C)ncc1C(=O)Nc1nnc(OC[C@H]2CCC[C@@H]2O)s1 (single isomer, unassigned) [Example 256, 2′-chloro-N-(5-((2-hydroxycyclopentyl)methoxy)-1,3,4-thiadiazol-2-yl)-5′-methoxy-6-methyl-(4,4′-bipyridine)-3-carboxamide] |
| ≤ 0.2 | COc1cnc(Br)cc1-c1cc(C)ncc1C(=O)Nc1nnc(OC[C@H]2COCCO2)s1 [Example 236, (R)—N-(5-((1,4-dioxan-2-yl)methoxy)-1,3,4-thiadiazol-2-yl)-2′-bromo-5′-methoxy-6-methyl-(4,4′-bipyridine)-3-carboxamide] |
| ≤ 0.2 | COc1cnc(Cl)cc1-c1cc(C)ncc1C(=O)Nc1nnc(OCC23CC(F)(C2)C3)s1 [Example 78, 2′-chloro-N-(5-((3-fluorobicyclo(1.1.1)pentan-1-yl)methoxy)-1,3,4-thiadiazol-2-yl)-5′-methoxy-6-methyl-(4,4′-bipyridine)-3-carboxamide] |
| ≤ 0.2 | Cc1cc(-c2c(F)cccc2OC(F)F)c(C(=O)Nc2nnc(OCc3ccc([C@@H](C)O)cn3)s2)cn1 [Example 57, 4-(2-(difluoromethoxy)-6-fluorophenyl)-N-(5-((5-((R)-1-hydroxyethyl)pyridin-2-yl)methoxy)-1,3,4-thiadiazol-2-yl)-6-methylnicotinamide] |
| ≤ 0.2 | COc1cnc(C)cc1-c1cc(C)ncc1C(=O)Nc1nnc(OC[C@H]2C[C@H](O)C2)s1 [Example 107, N-(5-(((1r,3r)-3-hydroxycyclobutyl)methoxy)-1,3,4-thiadiazol-2-yl)-5′-methoxy-2′,6-dimethyl-[4,4′-bipyridine]-3-carboxamide] |
| ≤ 0.2 | COc1cnc(C)cc1-c1cc(C)ncc1C(=O)Nc1nnc(OCc2ccc(Cl)cn2)s1 [Example 36, N-(5-((5-chloropyridin-2-yl)methoxy)-1,3,4-thiadiazol-2-yl)-5′-methoxy-2′,6-dimethyl-(4,4′-bipyridine)-3-carboxamide] |
| ≤ 0.2 | COc1cnc(Cl)cc1-c1cc(C)ncc1C(=O)Nc1nnc(OCc2ccc3c(n2)CCOC3)s1 [Example 151, 2′-chloro-5′-methoxy-6-methyl-N-(5-(5H,7H,8H-pyrano(4,3-b)pyridin-2-ylmethoxy)-1,3,4-thiadiazol-2-yl)-(4,4′-bipyridine)-3-carboxamide] |
| ≤ 0.2 | COc1cnc(Cl)cc1-c1cc(C)ncc1C(=O)Nc1nnc(OC[C@H]2C[C@H](O)C2)s1 [Example 108, 2′-chloro-N-(5-(((1r,3r)-3-hydroxycyclobutyl)methoxy)-1,3,4-thiadiazol-2-yl)-5′-methoxy-6-methyl-[4,4′-bipyridine]-3-carboxamide] |
| ≤ 0.2 | COc1ccc(Cl)cc1-c1cc(C)ncc1C(=O)Nc1nnc(OCc2ccc([S@](C)(=N)=O)cn2)s1 [Example 147, (R)-4-(5-chloro-2-methoxyphenyl)-6-methyl-N-(5-((5-(S-methylsulfonimidoyl)pyridin-2-yl)methoxy)-1,3,4-thiadiazol-2-yl)nicotinamide] |
| ≤ 0.2 | COc1cnc(Cl)cc1-c1cc(C)ncc1C(=O)Nc1nnc(OC[C@H]2C[C@@H](O)C2)s1 [Example 193, 2′-chloro-N-(5-(((1s,3s)-3-hydroxycyclobutyl)methoxy)-1,3,4-thiadiazol-2-yl)-5′-methoxy-6-methyl-(4,4′-bipyridine)-3-carboxamide] |
| ≤ 0.2 | COc1cccc(F)c1-c1cn2ncc(F)c2cc1C(=O)Nc1nnc(OC[C@H]2CC[C@H](O)CC2)s1 [Example 201, 3-fluoro-6-(2-fluoro-6-methoxyphenyl)-N-(5-(((1r,4r)-4-hydroxycyclohexyl)methoxy)-1,3,4-thiadiazol-2-yl)pyrazolo(1,5-a)pyridine-5-carboxamide] |
| ≤ 0.2 | COc1cnc(Cl)cc1-c1cc(C)ncc1C(=O)Nc1nnc(OC[C@H]2CO[C@@H](C)C2)s1 (single isomer, unassigned) [Example 251] |
| ≤ 0.2 | Cc1cc(-c2ccnc(Cl)c2)c(C(=O)Nc2nnc(OCc3ccc(C(C)(C)O)cn3)s2)cn1 [Example 73, 2′-chloro-N-(5-((5-(2-hydroxypropan-2-yl)pyridin-2-yl)methoxy)-1,3,4-thiadiazol-2-yl)-6-methyl-(4,4′-bipyridine)-3-carboxamide] |
| ≤ 0.2 | COc1cccc(F)c1-c1cc(C)ncc1C(=O)Nc1nnc(OCc2ccc([C@@H](C)OC)cn2)s1 [Example 94, 4-(2-fluoro-6-methoxyphenyl)-N-(5-((5-((R)-1-methoxyethyl)pyridin-2-yl)methoxy)-1,3,4-thiadiazol-2-yl)-6-methylnicotinamide] |
| ≤ 0.2 | COc1cccc(F)c1-c1cc(C)ncc1C(=O)Nc1nnc(OCc2cnc([C@H](C)O)cn2)s1 [Example 110, 4-(2-fluoro-6-methoxyphenyl)-N-(5-((5-((S)-1-hydroxyethyl)pyrazin-2-yl)methoxy)-1,3,4-thiadiazol-2-yl)-6-methylnicotinamide] |
| ≤ 0.2 | COc1cccc(F)c1-c1cc(C)ncc1C(=O)Nc1nnc(OCC23CCC(O)(CC2)CC3)s1 [Example 66, 4-(2-fluoro-6-methoxyphenyl)-N-(5-((4-hydroxybicyclo(2.2.2)octan-1-yl)methoxy)-1,3,4-thiadiazol-2-yl)-6-methylnicotinamide] |
| ≤ 0.2 | COc1cccc(F)c1-c1cc(C)ncc1C(=O)Nc1nnc(OCc2ccc(C3CCO3)cn2)s1 (stereo not drawn) [Example 130, 4-(2-fluoro-6-methoxyphenyl)-6-methyl-N-(5-((5-(oxetan-2-yl)pyridin-2-yl)methoxy)-1,3,4-thiadiazol-2-yl)nicotinamide] |
| ≤ 0.2 | COc1cnc(Cl)cc1-c1cc(C)ncc1C(=O)Nc1nnc(OCC2COC3(COC3)C2)s1 (stereo not drawn) [Example 225, N-(5-((2,5-dioxaspiro(3.4)octan-7-yl)methoxy)-1,3,4-thiadiazol-2-yl)-2′-chloro-5′-methoxy-6-methyl-(4,4′-bipyridine)-3-carboxamide] |
| ≤ 0.2 | COc1cnc(Cl)cc1-c1cc(C)ncc1C(=O)Nc1nnc(OCc2ccc([C@H](C)O)cn2)s1 [Example 68, (S)-2′-chloro-N-(5-((5-(1-hydroxyethyl)pyridin-2-yl)methoxy)-1,3,4-thiadiazol-2-yl)-5′-methoxy-6-methyl-(4,4′-bipyridine)-3-carboxamide] |

| SMILES | IC50 [µM] |
| --- | --- |
| COCc1ccc(COc2nnc(NC(=O)c3cnc(C)cc3-c3c(F)cccc3OC)s2)nc1 [Example 34, 4-(2-fluoro-6-methoxyphenyl)-N-(5-((5-(methoxymethyl)pyridin-2-yl)methoxy)-1,3,4-thiadiazol-2-yl)-6-methylnicotinamide] | ≤ 0.2 |

Reference: US20250325552A1, “SUBSTITUTED THIADIAZOLYL DERIVATIVES AS DNA POLYMERASE THETA INHIBITORS” (IDEAYA Biosciences, Inc., priority 2020, published 2025)
